In article PMC6769516, “Apoptotic Effects of Drug Targeting Conjugates Containing Different GnRH Analogs on Colon Carcinoma Cells” (International Journal of Molecular Sciences, 2019):
Where two headings read alike, the source gives them in different places. Non-standard residues stand in square brackets, D forms with d. Residues, ends and D or L forms follow the SMILES beside them. *: point of attachment. Daunorubicin(13-NOCH2CO) = COc1cccc2c1C(=O)c1c(O)c3c(c(O)c1C2=O)C[C@@](O)(C(C)=NOCC(=O)*)C[C@@H]3O[C@H]1C[C@H](N)[C@H](O)[C@H](C)O1; pGlu = O=C1CC[C@@H](C(=O)O)N1; Butyryl = CCCC(=O)*

Tested on: HT-29 cell line
Experiment: Cell viability assay, impedance-based xCELLigence SP System
Design: species or system human
Settings: for IC50: Delta CI normalized to control, sigmoidal fit, mean ± SD of three parallel measurements, read-out: IC50 of cytotoxicity; for Viability (control = 100 %): conjugate at 10^-4 M, mean of three parallels ± SD
Description: The effects of different GnRH conjugates on HT-29 cell growth were measured by the xCELLigence SP System (ACEA Biosciences, San Diego, CA, USA), which allows cell viability to be detected in real-time via impedance readouts. The experimental setup and the procedure were almost identical to the one described in more detail in our previous works. The continuous monitoring of cell viability provides the opportunity to determine the difference in the time-dependent cellular response for the various GnRH conjugates and to select the optimal time points to conduct more specific end-point assays (e.g., apoptosis assays) for further investigating the mechanism of antitumor activity. […] CI is a dimensionless value and is calculated from the impedance of the well with cells and the background impedance of the well without cells.
Briefly, the main steps of the experiment are the following: (i) the background measurement, in which 80 µL complete cell culture medium was loaded to each well of an E-plate in order to establish a constant CI value; (ii) the cell monitoring step, in which 100 µL of cell suspension (10^5 cell/mL) was added to each well followed by an incubation period of 24 h; and (iii) the compound activity monitoring step, in which test-conjugates (final concentration range: 32 nM–100 µM) were added to the cells at the plateau phase and the CI change was recorded for a further 72 h at 10 kHz. Stock solutions (5 × 10^−3 M) were prepared from the test-conjugates in distilled water and then further diluted to 320 nM–1 mM in the complete cell culture medium. The wells treated with an adequate volume of pure cell culture medium represented the control. Triplicate wells were used for each treatment for statistical analysis.
Delta CI values—a difference of CI value at the time point of cell inoculation and CI value at a given time point—were calculated by RTCA 2.0 software (ACEA Biosciences, San Diego, CA, USA) integrated into the xCELLigence SP System to characterize the time-dependent antiproliferative/cytotoxic effect of the different GnRH conjugates. IC50 values were used to compare the effect of the conjugates.

## COc1cccc2c1C(=O)c1c(O)c3c(c(O)c1C2=O)C[C@@](O)(C(C)=NOCC(=O)NCCCC[C@@H](NC(=O)[C@H](Cc1c[nH]cn1)NC(=O)[C@H](CO)NC(=O)[C@H](Cc1c[nH]c2ccccc12)NC(=O)[C@H](Cc1c[nH]cn1)NC(=O)[C@@H]1CCC(=O)N1)C(=O)N[C@@H](Cc1c[nH]c2ccccc12)C(=O)N[C@@H](Cc1ccc(O)cc1)C(=O)N1CCC[C@H]1C(=O)NCC(N)=O)C[C@@H]3O[C@H]1C[C@H](N)[C@H](O)[C@H](C)O1 [II-[^4Ser,^6D-Lys(Dau)], GnRH-II-[^4Ser,^6D-Lys(Dau=Aoa)]] ([pGlu]HWSH[dK](Daunorubicin(13-NOCH2CO))WYPG-NH2)
24 h incubation
  IC50: 58.9 ± 10 µM
48 h incubation
  IC50: 24.2 ± 0.86 µM
72 h incubation
  IC50: 19.7 ± 2.51 µM
48 h
  Viability (control = 100 %): 16.91 ±1.91%
72 h
  Viability (control = 100 %): 20.43 ± 2.66%

## CCCC(=O)NCCCC[C@H](NC(=O)[C@H](Cc1c[nH]c2ccccc12)NC(=O)[C@H](Cc1c[nH]cn1)NC(=O)[C@@H]1CCC(=O)N1)C(=O)N[C@@H](Cc1c[nH]cn1)C(=O)N[C@H](CCCCNC(=O)CON=C(C)[C@]1(O)Cc2c(O)c3c(c(O)c2[C@@H](O[C@H]2C[C@H](N)[C@H](O)[C@H](C)O2)C1)C(=O)c1c(OC)cccc1C3=O)C(=O)N[C@@H](Cc1c[nH]c2ccccc12)C(=O)N[C@@H](Cc1ccc(O)cc1)C(=O)N1CCC[C@H]1C(=O)NCC(N)=O [II-[^4Lys(Bu),^6D-Lys(Dau)], GnRH-II-[^4Lys(Bu),^6D-Lys(Dau=Aoa)]] ([pGlu]HWK(Butyryl)H[dK](Daunorubicin(13-NOCH2CO))WYPG-NH2)
24 h incubation
  IC50: 65.8 ± 3.89 µM
48 h incubation
  IC50: 69.7 ± 4.12 µM
72 h incubation
  IC50: 48.1 ± 6.89 µM
24 h
  Viability (control = 100 %): 35.64 ± 3.41%
48 h
  Viability (control = 100 %): 19.40 ± 2.77%
72 h
  Viability (control = 100 %): 24.31 ± 4.20%

## COc1cccc2c1C(=O)c1c(O)c3c(c(O)c1C2=O)C[C@@](O)(C(C)=NOCC(=O)NCCCC[C@@H](NC(=O)[C@H](Cc1ccc(O)cc1)NC(=O)[C@H](CO)NC(=O)[C@H](Cc1c[nH]c2ccccc12)NC(=O)[C@H](Cc1c[nH]cn1)NC(=O)[C@@H]1CCC(=O)N1)C(=O)N[C@@H](CC(C)C)C(=O)N[C@@H](CCCNC(=N)N)C(=O)N1CCC[C@H]1C(=O)NCC(N)=O)C[C@@H]3O[C@H]1C[C@H](N)[C@H](O)[C@H](C)O1 [I-[^4Ser,^6D-Lys(Dau)], GnRH-I-[^4Ser,^6D-Lys(Dau=Aoa)]]
24 h incubation
  IC50: > 100 µM
48 h incubation
  IC50: 60.2 ± 3.5 µM
72 h incubation
  IC50: 21.9 ± 1.54 µM
48 h
  Viability (control = 100 %): 43.82 ± 1.18%

## CCCC(=O)NCCCC[C@H](NC(=O)[C@H](Cc1c[nH]c2ccccc12)NC(=O)[C@H](Cc1c[nH]cn1)NC(=O)[C@@H]1CCC(=O)N1)C(=O)N[C@@H](Cc1ccc(O)cc1)C(=O)N[C@H](CCCCNC(=O)CON=C(C)[C@]1(O)Cc2c(O)c3c(c(O)c2[C@@H](O[C@H]2C[C@H](N)[C@H](O)[C@H](C)O2)C1)C(=O)c1c(OC)cccc1C3=O)C(=O)N[C@@H](CC(C)C)C(=O)N[C@@H](CCCNC(=N)N)C(=O)N1CCC[C@H]1C(=O)NCC(N)=O [I-[^4Lys(Bu),^6D-Lys(Dau)], GnRH-I-[^4Lys(Bu),^6D-Lys(Dau=Aoa)]] ([pGlu]HWK(Butyryl)Y[dK](Daunorubicin(13-NOCH2CO))LRPG-NH2)
24 h incubation
  IC50: > 100 µM
48 h incubation
  IC50: 18.7 ± 1.19 µM
72 h incubation
  IC50: 16.2 ± 1.75 µM
24 h
  Viability (control = 100 %): 86.69 ± 4.84%
48 h
  Viability (control = 100 %): 15.50 ± 0.55%
72 h
  Viability (control = 100 %): 5.31 ± 1.27%
